Source: US20160150766A1, “ADVANCING GENETIC GAIN IN BOVINE” (priority 2013, published 2016)

Test system: prepubescent calves
Assay: Laparoscopic oocyte retrieval from superstimulated prepubescent calves
Type: in vivo, bovine
Details: calves 3.5-6 months of age, superstimulated: progesterone CIDR, FSH s.c. at 12-hour intervals (20/15/10 mg/dose), 50 mg LH i.v.; aspiration 23 hours after LH
Protocol: Laparoscopic oocyte retrieval in prepubescent calves younger than six months of age provides an avenue of shortening the generation interval, thus increasing the rate of genetic gain. […] Three laparoscopic oocyte retrievals were performed on each calf, and the oocytes collected were fertilized in vitro and cultured to the blastocyst stage of development. Resulting embryos were transferred fresh into synchronized recipients, and pregnancies were carried out to Day 60. On average, nine oocytes were retrieved per aspiration when the calves were superstimulated. An average of six oocytes were retrieved from calves that had no FSH treatment.
Calves 3.5-6 months of age were used as egg donors. Initially a progesterone releasing device designed for sheep (Eazi Breed CIDR, Zoetis, USA) containing 0.3 g progesterone was inserted into the vagina of each calf and remained there for 12 days. The device was then removed for six days. A new CIDR was inserted and left for 12 days.
Superstimulation started nine days after insertion of the CIDR with the injection of […] follicle stimulating hormone (FSH) s.c. at 12-hour intervals, starting with two doses of 20 mg/dose, then two doses of 15 mg/dose, and finally two doses of 10 mg by the last injections. The CIDR was removed at the time of the final FSH injection and 50 mg of LH administered i.v. 2.5 days after removal of the CIDR. […]

## follicle stimulating hormone [FSH]
  oocytes retrieved per aspiration (average): nine
